Experimental data from paper PMC7803973, “Structural basis of malaria parasite phenylalanine tRNA-synthetase inhibition by bicyclic azetidines” (Nature Communications, 2021).

Legend:
[1] = target: T1, PvcFRS (Plasmodium vivax, UniProt A5K9S0); test: Incubation of PvcFRS with BRD1389 and ATP analogue AMPPNP; type: binding; conditions: PvcFRS with high concentrations of both BRD1389 and AMPPNP
T1 construct: Full-length PvcFRS was also purified according to the same protocol; vector-encoded tag of pETM11 (own knowledge: N-terminal His6 with TEV site); Ni-NTA purification; made in house; host or cells: E. coli strain B834
T1 sequence (A5K464 whole entry): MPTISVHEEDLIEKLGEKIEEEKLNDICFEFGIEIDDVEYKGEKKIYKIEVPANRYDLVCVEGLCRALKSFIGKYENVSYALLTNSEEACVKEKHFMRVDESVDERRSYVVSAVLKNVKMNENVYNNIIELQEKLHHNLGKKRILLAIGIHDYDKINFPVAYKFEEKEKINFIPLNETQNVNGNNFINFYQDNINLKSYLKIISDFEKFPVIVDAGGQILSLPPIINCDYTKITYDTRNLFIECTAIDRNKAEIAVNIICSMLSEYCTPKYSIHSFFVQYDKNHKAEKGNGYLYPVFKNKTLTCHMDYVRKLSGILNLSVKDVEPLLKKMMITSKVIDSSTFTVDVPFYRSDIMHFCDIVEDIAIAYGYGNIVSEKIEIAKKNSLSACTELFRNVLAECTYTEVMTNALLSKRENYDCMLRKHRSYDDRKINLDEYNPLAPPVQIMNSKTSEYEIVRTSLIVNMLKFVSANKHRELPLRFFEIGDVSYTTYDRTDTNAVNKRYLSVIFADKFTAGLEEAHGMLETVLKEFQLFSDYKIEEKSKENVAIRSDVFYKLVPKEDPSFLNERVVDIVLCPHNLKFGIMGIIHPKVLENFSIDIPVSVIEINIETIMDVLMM
T1 sequence (A5K9S0 whole entry): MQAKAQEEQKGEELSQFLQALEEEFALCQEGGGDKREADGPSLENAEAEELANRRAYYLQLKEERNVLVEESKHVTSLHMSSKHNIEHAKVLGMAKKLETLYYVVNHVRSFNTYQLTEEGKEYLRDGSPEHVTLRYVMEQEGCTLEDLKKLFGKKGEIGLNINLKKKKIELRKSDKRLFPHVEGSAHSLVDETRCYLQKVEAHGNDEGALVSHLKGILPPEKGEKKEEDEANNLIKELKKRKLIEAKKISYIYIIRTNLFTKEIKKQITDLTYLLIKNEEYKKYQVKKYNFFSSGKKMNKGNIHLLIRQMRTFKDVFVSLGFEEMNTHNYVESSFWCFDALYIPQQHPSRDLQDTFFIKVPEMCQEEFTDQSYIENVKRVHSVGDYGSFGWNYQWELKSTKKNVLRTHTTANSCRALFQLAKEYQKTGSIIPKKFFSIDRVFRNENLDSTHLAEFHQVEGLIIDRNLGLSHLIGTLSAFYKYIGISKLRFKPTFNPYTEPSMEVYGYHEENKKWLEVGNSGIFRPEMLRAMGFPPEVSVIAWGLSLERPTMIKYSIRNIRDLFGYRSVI
Source text: The diarylacetylene moiety of BRD1389 that occupies the L-Phe site is recognized via a bed of β-strand residues Ala541-Trp542-Gly543-Leu544 (Fig. 3b), while its edge phenyl ring is covered by Tyr497 where it provides an aromatic T-shaped π…π interaction at a distance of ~4.2 Å (Fig. 3b). In addition, the diarylacetylene moiety is surrounded by hydrophobic elements of Asn519, Gln457, and Glu459 (Fig. 3b). The urea moiety of BRD1389 is buried in a groove that is composed of Gly506, His508, Glu510, Lys512–513, Leu515, Ile552 and Pro549 (Figs. 3b, e and 4c). The urea/groove interactions are mainly stabilized by hydrophobic contacts, particularly from Pro549 and His508 while residues Val517, Ile483 and Pro549 provide sandwich support to the cyclopropoxy moiety (Figs. 3b and 4c). The urea component of BRD1389 forms hydrogen bonding interactions with main-chain N-atom of Ser545 (Fig. 3a, b). The above sets of extensive interactions position BRD1389 in an ‘L’ shaped conformation wherein its methoxy methyl group is surrounded by socket residues Arg443, Glu445, His451, and Phe455. […] This similarity highlights the importance of the three-dimensional shape and rigidity of the diazabicyclodecane scaffold in pre-orienting the molecular appendages for optimal target engagement. […]

[2] = target: PfcFRS mutant (L550V) (Plasmodium falciparum, UniProt Q8I246, L550V); test: Malachite green aminoacylation enzyme inhibition assay; type: biochemical
Sequence of PfcFRS mutant (L550V) (Q8IIW2 whole entry, stated change not applied): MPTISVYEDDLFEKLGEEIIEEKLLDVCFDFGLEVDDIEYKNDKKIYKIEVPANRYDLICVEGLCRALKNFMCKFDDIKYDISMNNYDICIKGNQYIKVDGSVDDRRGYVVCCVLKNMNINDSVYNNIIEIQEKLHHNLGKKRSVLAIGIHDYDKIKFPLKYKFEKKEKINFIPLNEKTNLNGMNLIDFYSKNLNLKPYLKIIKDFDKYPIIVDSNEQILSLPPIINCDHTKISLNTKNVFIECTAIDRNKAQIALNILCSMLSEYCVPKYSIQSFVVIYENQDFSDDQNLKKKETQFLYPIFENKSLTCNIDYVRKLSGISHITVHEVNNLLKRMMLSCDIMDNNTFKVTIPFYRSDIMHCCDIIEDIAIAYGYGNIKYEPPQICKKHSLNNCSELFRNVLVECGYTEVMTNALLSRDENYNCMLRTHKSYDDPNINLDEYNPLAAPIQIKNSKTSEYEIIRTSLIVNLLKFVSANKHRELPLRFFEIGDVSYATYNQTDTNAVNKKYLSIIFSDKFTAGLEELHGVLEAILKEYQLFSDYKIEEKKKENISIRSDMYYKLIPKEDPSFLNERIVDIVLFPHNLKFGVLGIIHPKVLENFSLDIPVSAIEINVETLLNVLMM
Sequence of PfcFRS mutant (L550V) (Q8I246 whole entry, stated change not applied): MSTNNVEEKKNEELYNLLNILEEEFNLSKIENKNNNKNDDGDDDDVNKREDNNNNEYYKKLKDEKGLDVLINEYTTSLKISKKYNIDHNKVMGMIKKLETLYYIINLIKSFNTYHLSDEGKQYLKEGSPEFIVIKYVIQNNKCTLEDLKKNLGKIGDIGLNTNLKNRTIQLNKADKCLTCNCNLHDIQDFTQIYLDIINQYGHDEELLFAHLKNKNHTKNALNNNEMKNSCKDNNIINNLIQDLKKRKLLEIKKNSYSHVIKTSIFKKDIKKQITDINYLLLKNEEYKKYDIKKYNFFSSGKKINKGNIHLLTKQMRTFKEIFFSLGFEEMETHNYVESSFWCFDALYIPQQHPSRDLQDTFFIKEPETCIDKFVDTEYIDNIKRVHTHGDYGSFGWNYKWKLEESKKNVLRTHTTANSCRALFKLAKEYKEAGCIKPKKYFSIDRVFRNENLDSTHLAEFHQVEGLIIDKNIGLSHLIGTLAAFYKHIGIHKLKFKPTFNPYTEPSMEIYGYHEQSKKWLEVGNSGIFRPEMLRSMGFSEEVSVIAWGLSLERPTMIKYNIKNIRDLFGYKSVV
Experimental: (§1) These were done using malachite green assay as per earlier published reports[1],[6]. Briefly, the reaction was performed for 100 µM ATP, 50 µM L-phenylalanine and 100 nM recombinant PheRS enzymes (Pf, Pv, Hs, Pf mutant (L550V)) in a buffer containing 30 mM HEPES (pH 7.5), 150 mM, NaCl, 30 mM KCl, 50 mM, MgCl2, 1 mM DTT, and 2 U/ml E. coli inorganic pyrophosphatase (NEB) at 37 °C. Enzymatic reactions (50 μl total volume) were performed in clear, flat-bottomed, 96-well plates (Costar 96-well standard microplates). The reaction mixture was incubated for 2 h at 37 °C. The reaction was stopped by adding 12.5 μl of malachite green solution to the reaction mixture and levels of inorganic phosphate (Pi) were detected after incubation of 5 min at room temperature. Absorbance was the measured at 620 nm using a Spectramax M2 (Molecular Devices). Reactions without FRS enzyme were performed as background controls, values of which were subtracted from the reactions with enzyme. BRD1389 was added to our aminoacylation assay reaction buffer in varying concentrations ranging from 0.1 nM to 10,000 nM. The IC50 value for the data is shown for three replicates as the mean ± SD.

[3] = target: HscFRS (Homo sapiens, UniProt Q9Y285); test: as above; type: biochemical
Sequence of HscFRS (Q9NSD9 whole entry): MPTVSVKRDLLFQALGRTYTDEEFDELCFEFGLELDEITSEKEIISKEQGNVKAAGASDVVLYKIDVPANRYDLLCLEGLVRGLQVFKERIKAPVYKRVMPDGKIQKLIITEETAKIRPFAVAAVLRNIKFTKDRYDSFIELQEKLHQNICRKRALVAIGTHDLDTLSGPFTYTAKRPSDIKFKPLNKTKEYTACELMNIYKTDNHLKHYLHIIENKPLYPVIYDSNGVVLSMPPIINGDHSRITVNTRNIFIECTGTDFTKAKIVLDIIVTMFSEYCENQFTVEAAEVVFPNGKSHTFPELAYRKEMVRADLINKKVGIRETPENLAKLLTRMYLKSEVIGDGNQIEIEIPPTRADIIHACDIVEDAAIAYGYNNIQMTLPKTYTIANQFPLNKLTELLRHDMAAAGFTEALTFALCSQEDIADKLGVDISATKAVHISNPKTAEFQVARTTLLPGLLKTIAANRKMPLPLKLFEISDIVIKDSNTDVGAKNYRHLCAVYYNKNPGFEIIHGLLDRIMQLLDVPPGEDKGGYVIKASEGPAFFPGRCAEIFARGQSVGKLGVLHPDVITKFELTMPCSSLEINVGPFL
Sequence of HscFRS (Q9Y285 whole entry): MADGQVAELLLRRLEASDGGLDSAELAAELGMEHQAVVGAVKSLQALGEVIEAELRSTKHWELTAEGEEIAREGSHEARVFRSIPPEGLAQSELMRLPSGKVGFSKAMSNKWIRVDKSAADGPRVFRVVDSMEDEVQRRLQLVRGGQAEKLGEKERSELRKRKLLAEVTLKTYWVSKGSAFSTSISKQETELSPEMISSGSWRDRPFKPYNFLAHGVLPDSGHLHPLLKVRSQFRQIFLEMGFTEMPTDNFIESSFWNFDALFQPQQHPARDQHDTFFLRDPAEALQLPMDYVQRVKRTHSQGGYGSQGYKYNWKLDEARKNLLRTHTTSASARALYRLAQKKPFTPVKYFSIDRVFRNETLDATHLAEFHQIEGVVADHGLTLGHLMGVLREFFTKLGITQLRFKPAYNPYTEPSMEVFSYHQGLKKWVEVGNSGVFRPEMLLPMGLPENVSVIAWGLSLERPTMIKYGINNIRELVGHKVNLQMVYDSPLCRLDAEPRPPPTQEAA
Experimental: as §1

[4] = target: T1, PvcFRS; test: as above; type: biochemical
Experimental: as §1

[5] = test system: Dd2; test: Whole parasite growth inhibition (Dd2), quoted in peer review file; type: cell-based; conditions: quoted by Reviewer #2 from the submitted manuscript
[6] = 2 h, read-out: % Enzyme Activity

COC[C@@H]1[C@H](c2ccc(C#Cc3ccccc3)cc2)[C@@H]2CN(C(=O)Nc3ccc(OC4CC4)cc3)C[C@@H](O)[C@@H](O)CN12 [BRD1389]
Binding observed on co-incubation [1]: observed only binding of BRD1389
IC50 [2]: 1000 nM
remaining activity at 1 pM [2, 6]: 100%
remaining activity at 0.0001 µM [2, 6]: 99.5%
remaining activity at 0.001 µM [2, 6]: 98%
remaining activity at 0.01 µM [2, 6]: 95.2%
remaining activity at 0.1 µM [2, 6]: 75.4%
remaining activity at 1 µM [2, 6]: 55.3%
remaining activity at 10 µM [2, 6]: 18.8%
remaining activity at 100 µM [2, 6]: 0%
IC50 ([3]; Hs cFRS aminoacylation activity): 12000 nM
remaining activity at 0.0001 µM ([3]; HscFRS, BRD1389 0.0001 uM): 99.6%
remaining activity at 0.001 µM ([3]; HscFRS, BRD1389 0.001 uM): 100%
remaining activity at 0.01 µM ([3]; HscFRS, BRD1389 0.01 uM): 99.7%
remaining activity at 0.1 µM ([3]; HscFRS, BRD1389 0.1 uM): 90.2%
remaining activity at 1 µM ([3]; HscFRS, BRD1389 1 uM): 85%
remaining activity at 10 µM ([3]; HscFRS, BRD1389 10 uM): 49.5%
remaining activity at 100 µM ([3]; HscFRS, BRD1389 100 uM): 20%
remaining activity at 1 pM [4, 6]: 100%
IC50 ([4]; Pv cFRS aminoacylation activity): 25 ± 1 nM
remaining activity at 0.0001 µM ([4]; PvcFRS, BRD1389 0.0001 uM): 95.4%
remaining activity at 0.001 µM ([4]; PvcFRS, BRD1389 0.001 uM): 86.2%
remaining activity at 0.01 µM ([4]; PvcFRS, BRD1389 0.01 uM): 60.7%
remaining activity at 0.1 µM ([4]; PvcFRS, BRD1389 0.1 uM): 20.7%
remaining activity at 1 µM ([4]; PvcFRS, BRD1389 1 uM): 8.61%
remaining activity at 10 µM ([4]; PvcFRS, BRD1389 10 uM): 2.17%
remaining activity at 100 µM ([4]; PvcFRS, BRD1389 100 uM): 0%
Dd2 growth inhibitory activity [5]: < 1 nM
